Six compounds from US8574608B2, “Bactericidal silver surfactant delivery into coating and polymer compositions” (Eastern Michigan Universtity, priority 2007, dated 2013) can be followed below.

Assay [1] concerns E. coli. Nature of the assay: E. coli challenged by silver surfactants in commercial acrylic paint. On surviving bacteria (growth): key: A minus sign (−) denotes no growth; a plus sign (+) denotes confluent growth; a capital P (P) denotes particle growth. Format: cell-based, Escherichia coli. The note with it: 24 h contact time; for surviving bacteria (growth): commercial solvent borne acrylate paint coating.
A further assay concerns S. aureus. Nature of the assay: S. aureus challenged by silver surfactants in laboratory acrylic clearcoat. On surviving bacteria (growth): key: A minus sign (−) denotes no growth; a plus sign (+) denotes confluent growth; a capital P (P) denotes particle growth. Format: cell-based, Staphylococcus aureus. The settings on record: 24 h contact time; for surviving bacteria (growth): laboratory solvent borne acrylate clearcoat.
The test system of assay [2] is E. coli. The experiment in a line: E. coli challenged by silver surfactants in laboratory acrylic paint. On surviving bacteria (growth): key: A minus sign (−) denotes no growth; a plus sign (+) denotes confluent growth; a capital P (P) denotes particle growth. The settings on record: 24 h contact time; for surviving bacteria (growth): laboratory solvent borne acrylate paint coating. Format: cell-based, Escherichia coli.
The test system of assay [3] is E. coli. The experiment in a line: E. coli challenged by silver surfactants in commercial alkyd paint. Further: key: A minus sign (−) denotes no growth; a plus sign (+) denotes confluent growth; a capital P (P) denotes particle growth. The settings on record: alkyd resin paint coating, 24 h contact time. Format: cell-based, Escherichia coli.
Assay [4] deals with E. coli. Nature of the assay: E. coli challenged by silver surfactants in commercial 2K epoxy paint. Format: cell-based, Escherichia coli. The settings on record: 24 h contact time; for surviving bacteria (growth): commercial 2K epoxy paint coating.
In a further assay the test system is Streptococcus viridans. Nature of the assay: Growth on agar plates containing sodium surfactant. Format: cell-based. The note with it: agar plates with sodium surfactant; strain EM8; replicates 1-2 or 1-3.
In a further assay the test system is Enterococcus fecalis. Nature of the assay: Growth on agar plates containing sodium surfactant. Format: cell-based. The note with it: agar plates with sodium surfactant, replicates 1-2 or 1-3.
Assay [5] deals with Staphylococcus epidermidis. The experiment in a line: Growth on agar plates containing sodium surfactant. Format: cell-based. The settings on record: agar plates with sodium surfactant; strain EM3/ATCC12228; replicates 1-2 or 1-3.
In the next assay the test system is Streptococcus bovis. The experiment in a line: Growth on agar plates containing sodium surfactant. Format: cell-based. The settings on record: agar plates with sodium surfactant; strain EM12; replicates 1-2 or 1-3.
Another assay has as its system Micrococcus luteus. Nature of the assay: Growth on agar plates containing sodium surfactant. Format: cell-based. The settings on record: agar plates with sodium surfactant; strain EM17; replicates 1-2 or 1-3.
In the next assay the test system is Bacillus subtilis. The experiment in a line: Growth on agar plates containing sodium surfactant. Format: cell-based. The settings on record: agar plates with sodium surfactant, replicates 1-2 or 1-3.
In the next assay the test system is Streptococcus agalactiae. Nature of the assay: Growth on agar plates containing sodium surfactant. Format: cell-based. The settings on record: agar plates with sodium surfactant; strain EM13; replicates 1-2 or 1-3.
Another assay has as its system Staphylococcus aureus. Nature of the assay: Growth on agar plates containing sodium surfactant. The settings on record: agar plates with sodium surfactant, replicates 1-2 or 1-3. Format: cell-based.
A further assay concerns Streptococcus pyogenes. The experiment in a line: Growth on agar plates containing sodium surfactant. Format: cell-based. The note with it: agar plates with sodium surfactant; strain EM14; replicates 1-2 or 1-3.

Where “and” joins values, the source holds several entries; their conditions need not be identical. Identical values can stand only once.

For `CCCCCCCCCCCCOS(=O)(=O)[O-].[Ag+]` [AgDS, Silver dodecylsufate], the “silver level effective at preventing any growth” value in the assay on E. coli [1] (commercial acrylic paint) and in the assay on E. coli [2] (laboratory acrylic paint) was 0.03 % w/w throughout. For the same compound, the “surviving bacteria (growth)” value in the assay with E. coli [1] (0.0012 weight % Ag in coating) was “+”; in the assay with E. coli [1] (0.003 weight % Ag in coating), “+”; in the assay on E. coli [1] (0.006 weight % Ag in coating), “+”; with E. coli [1] (0.012 weight % Ag in coating), “+”; in the assay with E. coli [1] (0.03 weight % Ag in coating) it was “−”; with E. coli [1] (0.06 weight % Ag in coating), “−”. For the same compound, the “surviving bacteria (growth)” value in the assay on E. coli [1] (0.12 weight % Ag in coating), in the assay with S. aureus (0.0012 weight % Ag in coating), with S. aureus (0.003 weight % Ag in coating), in the assay with S. aureus (0.006 weight % Ag in coating), with S. aureus (0.012 weight % Ag in coating) and in the assay on S. aureus (0.03 weight % Ag in coating) was “−” throughout. Also, the “surviving bacteria (growth)” value was “−” in the assay on S. aureus (0.06 weight % Ag in coating); “−” with S. aureus (0.12 weight % Ag in coating); “+” with E. coli [2] (0.0012 weight % Ag in coating); “+” with E. coli [2] (0.003 weight % Ag in coating); “+” in the assay with E. coli [2] (0.006 weight % Ag in coating); “−” in the assay on E. coli [2] (0.03 weight % Ag in coating). Further, the “surviving bacteria (growth)” value is “−” with E. coli [2] (0.06 weight % Ag in coating); “−” in the assay with E. coli [2] (0.12 weight % Ag in coating); “+” in the assay with E. coli [3] (0.0012 weight % Ag in coating); “+” with E. coli [3] (0.003 weight % Ag in coating); “+” in the assay with E. coli [3] (0.006 weight % Ag in coating); “+” in the assay with E. coli [3] (0.012 weight % Ag in coating). Besides, the “surviving bacteria (growth)” value with E. coli [3] (0.03 weight % Ag in coating) is listed as “−”; with E. coli [3] (0.06 weight % Ag in coating), “−”; with E. coli [3] (0.12 weight % Ag in coating), “−”; with E. coli [4] (0.0012 weight % Ag in coating), “+”; with E. coli [4] (0.003 weight % Ag in coating), “+”; with E. coli [4] (0.006 weight % Ag in coating) it was “+”. Moreover, the “surviving bacteria (growth)” value in the assay with E. coli [4] (0.03 weight % Ag in coating), in the assay with E. coli [4] (0.06 weight % Ag in coating) and in the assay on E. coli [4] (0.12 weight % Ag in coating) was “−” in each case. Also, the “silver level with partial inhibition (only partial growth)” value with E. coli [2] (laboratory acrylic paint) is 0.012%. For the same compound, the “silver level giving complete inhibition of growth” value in the assay with E. coli [4] (commercial 2K epoxy paint) was found to be 0.03 % w/w. For the same compound, the “silver level partially effective” value in the assay on E. coli [4] (commercial 2K epoxy paint) stood at 0.012 % w/w.

As to `CCCCC(CC)COC(=O)CC(C(=O)OCC(CC)CCCC)S(=O)(=O)[O-].[Na+]` (stereo not shown) [Compound S1], the “Survival: No Growth/Full Growth” value in the assay on Streptococcus viridans is “−”; in the assay with Enterococcus fecalis (strain EM19, first line), “−”; with Enterococcus fecalis (strain EM19, second line), “−”; in assay [5] it was “−”; with Streptococcus bovis it was “−”; with Micrococcus luteus, “−”. For the same compound, the “Survival: No Growth/Full Growth” value in the assay with Bacillus subtilis (strain ATCC33), with Bacillus subtilis (strain EM27), in the assay on Streptococcus agalactiae, with Staphylococcus aureus (strain ATCC6538), in the assay on Staphylococcus aureus (strain EM24/ATCC25923) and in the assay on Streptococcus pyogenes was “−” each time.

As to `CCCCC(CC)COP(=O)([O-])OCCC(CC)CCC.[Na+]` (stereo not shown) [Compound S2], the “Survival: No Growth/Full Growth” value in the assay with Streptococcus viridans is “−”; in the assay on Enterococcus fecalis (strain EM19, first line), “−”; in the assay on Enterococcus fecalis (strain EM19, second line) it was “−”; in assay [5] it was “−”; in the assay with Streptococcus bovis, “−”; with Micrococcus luteus, “−”. Further, the “Survival: No Growth/Full Growth” value in the assay with Bacillus subtilis (strain ATCC33), in the assay on Bacillus subtilis (strain EM27), in the assay with Streptococcus agalactiae, with Staphylococcus aureus (strain ATCC6538), in the assay on Staphylococcus aureus (strain EM24/ATCC25923) and in the assay with Streptococcus pyogenes was “−” throughout.

On to `CC(C)CC(C)OC(=O)CC(C(=O)OC(C)CC(C)C)S(=O)(=O)[O-].[Na+]` (stereo not shown) [Compound S4], for which the “Survival: No Growth/Full Growth” value is recorded as “+” with Streptococcus viridans; “−” in the assay with Enterococcus fecalis (strain EM19, first line); “+” in the assay on Enterococcus fecalis (strain EM19, second line); “−” in assay [5]; “−” in the assay on Streptococcus bovis; “−” in the assay on Micrococcus luteus. Further, the “Survival: No Growth/Full Growth” value with Bacillus subtilis (strain ATCC33), in the assay on Bacillus subtilis (strain EM27), with Streptococcus agalactiae, in the assay with Staphylococcus aureus (strain ATCC6538), in the assay on Staphylococcus aureus (strain EM24/ATCC25923) and in the assay on Streptococcus pyogenes was “−” throughout.

Take `O=C(CC(C(=O)OC1CCCCC1)S(=O)(=O)[O-])OC1CCCCC1.[Na+]` (stereo not shown) [Compound S5]: the “Survival: No Growth/Full Growth” value with Streptococcus viridans is “+”; in the assay with Enterococcus fecalis (strain EM19, first line), “+”; with Enterococcus fecalis (strain EM19, second line) it was “+”; in assay [5] it was “+”; in the assay with Streptococcus bovis, “−”; in the assay on Micrococcus luteus, “− (2×) and +”. For the same compound, the “Survival: No Growth/Full Growth” value was “− and +” in the assay with Bacillus subtilis (strain ATCC33); “+” in the assay with Bacillus subtilis (strain EM27); “− and +” with Streptococcus agalactiae; “+” in the assay with Staphylococcus aureus (strain ATCC6538); “+” in the assay with Staphylococcus aureus (strain EM24/ATCC25923); “−” with Streptococcus pyogenes.

With “silver linearalkanebenzene sulfonate [AgLABS]”, in the assay with E. coli [1] (commercial acrylic paint), the “silver level partially effective” value amounted to 0.03 % Ag w/w. Further, the “surviving bacteria (growth)” value in the assay with E. coli [1] (0.0012 weight % Ag in coating) is given as “+”; in the assay on E. coli [1] (0.003 weight % Ag in coating), “+”; in the assay on E. coli [1] (0.006 weight % Ag in coating) it was “+”; with E. coli [1] (0.012 weight % Ag in coating), “+”; with E. coli [1] (0.06 weight % Ag in coating), “−”; with E. coli [1] (0.12 weight % Ag in coating), “−”. Further, the “surviving bacteria (growth)” value in the assay on S. aureus (0.0012 weight % Ag in coating) is listed as “−”; in the assay with S. aureus (0.003 weight % Ag in coating) it was “−”; with S. aureus (0.03 weight % Ag in coating), “−”; with S. aureus (0.06 weight % Ag in coating) it was “−”; in the assay with S. aureus (0.12 weight % Ag in coating), “−”; in the assay on E. coli [2] (0.0012 weight % Ag in coating) it was “+”. Further, the “surviving bacteria (growth)” value in the assay with E. coli [2] (0.003 weight % Ag in coating) is on record as “+”; with E. coli [2] (0.006 weight % Ag in coating), “+”; in the assay on E. coli [2] (0.012 weight % Ag in coating), “+”; in the assay with E. coli [2] (0.06 weight % Ag in coating), “−”; with E. coli [2] (0.12 weight % Ag in coating), “−”; with E. coli [3] (0.0012 weight % Ag in coating), “+”. Moreover, the “surviving bacteria (growth)” value in the assay on E. coli [3] (0.003 weight % Ag in coating) is given as “+”; in the assay on E. coli [3] (0.006 weight % Ag in coating) it was “+”; in the assay on E. coli [3] (0.012 weight % Ag in coating), “+”; in the assay with E. coli [3] (0.03 weight % Ag in coating), “−”; with E. coli [3] (0.06 weight % Ag in coating), “−”; in the assay on E. coli [3] (0.12 weight % Ag in coating) it was “−”. For the same compound, the “surviving bacteria (growth)” value in the assay on E. coli [4] (0.0012 weight % Ag in coating) is given as “+”; in the assay with E. coli [4] (0.003 weight % Ag in coating), “+”; in the assay with E. coli [4] (0.006 weight % Ag in coating), “+”; in the assay with E. coli [4] (0.012 weight % Ag in coating) it was “+”; in the assay with E. coli [4] (0.03 weight % Ag in coating) it was “−”; with E. coli [4] (0.06 weight % Ag in coating) it was “−”. Also, in the assay on E. coli [4] (0.12 weight % Ag in coating), the “surviving bacteria (growth)” value is listed as “−”. The “silver level at which partial growth is observed” value in the assay on S. aureus (laboratory acrylic clearcoat) is 0.012 % Ag w/w and 0.006 % Ag w/w. The “silver level with partial inhibition (only partial growth)” value in the assay on E. coli [2] (laboratory acrylic paint) is on record as 0.03%. The “silver level giving complete inhibition of growth” value with E. coli [4] (commercial 2K epoxy paint) was found to be 0.03 % w/w.
